Data reported in patent US20080146500A1, “Selective Vpac2 Receptor Peptide Agonists” (priority 2004, published 2008).
Ends that are not written are not given here.

How the values were obtained:
Normal Wistar rats = assay: Intravenous glucose tolerance test (IVGTT), serum glucose and insulin; format: in vivo, rat
Method: Intravenous glucose tolerance test (IVGTT): Normal Wistar rats are fasted overnight and are anesthetized prior to the experiment. A blood sampling catheter is inserted into the rats. The compound is given in the jugular vein. Blood samples are taken from the carotid artery. A blood sample is drawn immediately prior to the injection of glucose along with the compound. After the initial blood sample, glucose mixed with compound is injected intravenously (i.v.). Compound may also be injected intravenously or subcutaneously prior to the glucose challenge. A glucose challenge of 0.5 g/kg body weight is given, injecting a total of 1.5 mL vehicle with glucose and agonist per kg body weight. The peptide concentrations are varied to produce the desired dose in μg/kg. Blood samples are drawn at 2, 4, 6 and 10 minutes after giving glucose. The control group of animals receives the same vehicle along with glucose, but with no compound added. In some instances, a 30 minute post-glucose blood sample is drawn. Aprotinin is added to the blood sample (250-500 kIU/ml blood). The serum is then analyzed for glucose and insulin using standard methodologies.
The assay uses a formulated and calibrated peptide stock in PBS. Normally, this stock is a prediluted 100 μM stock. However, a more concentrated stock with approximately 1 mg agonist per 1 mL is used. The specific concentration is always known. Variability in the maximal response is mostly due to variability in the vehicle dose.

ZDF rats = assay: Glucose lowering in conscious food-deprived diabetic ZDF rats; format: in vivo, rat
Method: Glucose lowering in diabetic ZDF rats. ZDF rats, 8-9 weeks old with fed glucose levels of approximately 300 mg/dl are used for this experiment. The animals are randomised into control (vehicle) and treatment group(s) on the day of the experiment and are conscious throughout the experiment. The compound is injected intravenously at the start of the experiment and blood samples are drawn from the tail vein immediately prior to compound injection and then 0.5, 1, 2, 3, 4 and 24 h after compound injection. The animals are deprived of food during the first 2 or 4 h of the experiment. The blood samples are collected in EDTA tubes, aprotinin added and immediately put on ice pending insulin and glucose analysis using standard methods.

[1] = 10 μg/kg iv, 0 h (immediately prior to injection)
[2] = 10 μg/kg iv, 0.5 h after injection
[3] = 10 μg/kg iv, 1 h after injection
[4] = 10 μg/kg iv, 2 h after injection
[5] = 10 μg/kg iv, 4 h after injection (food access after 2 h)
[6] = 10 μg/kg iv, 24 h after injection (food access after 2 h)
[7] = 30 μg/kg iv, 0 h (immediately prior to injection)
[8] = 30 μg/kg iv, 0.5 h after injection
[9] = 30 μg/kg iv, 1 h after injection
[10] = 30 μg/kg iv, 2 h after injection
[11] = 30 μg/kg iv, 4 h after injection (food access after 2 h)
[12] = 30 μg/kg iv, 24 h after injection (food access after 2 h)
[13] = 100 μg/kg iv, 0 h (immediately prior to injection)
[14] = 100 μg/kg iv, 1 h after injection
[15] = 100 μg/kg iv, 2 h after injection
[16] = 100 μg/kg iv, 3 h after injection
[17] = 100 μg/kg iv, 4 h after injection
[18] = 100 μg/kg iv, 24 h after injection (food access after 4 h)

P137: PEGylated material obtained from P120 and methoxy-PEG2-MAL-40K (HSDAVFTDNYTRLRKQVAAKKYLQSIKNKRYGGPSSGAPPPC; also: PEGylated with methoxy-PEG2-MAL-40K, site not given here) [Agonist P137]
% increase AUC (insulin, 0-10 min after glucose) (Normal Wistar rats; Dose = 10 μg/kg iv, time between glucose & compound 0 h): +366% | % increase AUC (insulin, 0-10 min after glucose) (Normal Wistar rats; Dose = 10 μg/kg iv, time between glucose & compound 4 h): +193% | % increase AUC (insulin, 0-10 min after glucose) (Normal Wistar rats; Dose = 30 μg/kg iv, time between glucose & compound 4 h): +321% | % increase AUC (insulin, 0-10 min after glucose) (Normal Wistar rats; Dose = 100 μg/kg iv, time between glucose & compound 4 h): +487% | glucose (ZDF rats; [1]): 344 mg/dL | insulin (ZDF rats; [1]): 12.5 ng/mL | glucose (ZDF rats; [2]): 277 mg/dL | insulin (ZDF rats; [2]): 21.2 ng/mL | glucose (ZDF rats; [3]): 244 mg/dL | insulin (ZDF rats; [3]): 18.5 ng/mL | glucose (ZDF rats; [4]): 199 mg/dL | insulin (ZDF rats; [4]): 20.0 ng/mL | glucose (ZDF rats; [5]): 361 mg/dL | insulin (ZDF rats; [5]): 18.5 ng/mL | glucose (ZDF rats; [6]): 336 mg/dL | insulin (ZDF rats; [6]): 15.0 ng/mL | glucose (ZDF rats; [7]): 329 mg/dL | insulin (ZDF rats; [7]): 10.9 ng/mL | glucose (ZDF rats; [8]): 254 mg/dL | insulin (ZDF rats; [8]): 27.0 ng/mL | glucose (ZDF rats; [9]): 218 mg/dL | insulin (ZDF rats; [9]): 23.7 ng/mL | glucose (ZDF rats; [10]): 156 mg/dL | insulin (ZDF rats; [10]): 23.1 ng/mL | glucose (ZDF rats; [11]): 347 mg/dL | insulin (ZDF rats; [11]): 20.8 ng/mL | glucose (ZDF rats; [12]): 347 mg/dL | insulin (ZDF rats; [12]): 16.0 ng/mL | glucose (ZDF rats; [13]): 307 mg/dL | insulin (ZDF rats; [13]): 17.8 ng/mL | glucose (ZDF rats; [14]): 362 mg/dL | insulin (ZDF rats; [14]): 19.9 ng/mL | glucose (ZDF rats; [15]): 360 mg/dL | insulin (ZDF rats; [15]): 15.9 ng/mL | glucose (ZDF rats; [16]): 323 mg/dL | insulin (ZDF rats; [16]): 15.4 ng/mL | glucose (ZDF rats; [17]): 304 mg/dL | insulin (ZDF rats; [17]): 15.1 ng/mL | glucose (ZDF rats; [18]): 400 mg/dL | insulin (ZDF rats; [18]): 11.1 ng/mL
